According to ChEMBL document CHEMBL3045589, “Aromatic amino analogues of artemisinin: synthesis and in vivo antimalarial activity” (2010):

System: Plasmodium yoelii nigeriensis
Assay: Antimalarial activity against Plasmodium yoelii nigeriensis infected in po-dosed Swiss albino mouse assessed as inhibition of parasite growth administered qd for 4 days
Format: functional
Details: 96 h

Compound | ED50 | ED90
C[C@@H]1CC[C@@H]2[C@]34OO[C@](C)(CC[C@@H]13)O[C@H]4OC(Nc1ccc(O)c(CN3CCCCC3)c1)[C@@]2(C)Br (stereo not given in full) | 11.3 mg/kg | 23.1 mg/kg
C[C@@H]1CC[C@@H]2[C@]34OO[C@](C)(CC[C@@H]13)O[C@H]4OC(Nc1ccc(O)c(CN3CCN(c4ccccc4)CC3)c1)[C@@]2(C)Br (stereo not given in full) | 5.41 mg/kg | 8.72 mg/kg
C[C@@H]1CC[C@@H]2[C@]34OO[C@](C)(CC[C@@H]13)O[C@H]4OC(Nc1ccc(O)c(CN3CCN(Cc4ccccc4)CC3)c1)[C@@]2(C)Br (stereo not given in full) | 7.12 mg/kg | 12.1 mg/kg
CCN(CC)Cc1cc(NC2O[C@@H]3O[C@@]4(C)CC[C@H]5[C@H](C)CC[C@H]([C@@]35OO4)[C@]2(C)Br)ccc1O (stereo not given in full) | 12.3 mg/kg | 24.2 mg/kg
C[C@@H]1CC[C@@H]2[C@]34OO[C@](C)(CC[C@@H]13)O[C@H]4OC(Nc1ccc(O)c(CN3CCN(c4ccccn4)CC3)c1)[C@@]2(C)Br (stereo not given in full) | 7.9 mg/kg | 12.2 mg/kg
C[C@@H]1CC[C@H]2[C@@H](C)C(=O)O[C@@H]3O[C@@]4(C)CC[C@@H]1[C@]32OO4 [ARTEMISININ] | 16.4 mg/kg | 27.1 mg/kg
CCN1CCN(Cc2cc(NC3O[C@@H]4O[C@@]5(C)CC[C@H]6[C@H](C)CC[C@H]([C@@]46OO5)[C@]3(C)Br)ccc2O)CC1 (stereo not given in full) | 9.83 mg/kg | 16.6 mg/kg
C[C@@H]1CC[C@@H]2[C@]34OO[C@](C)(CC[C@@H]13)O[C@H]4OC(Nc1ccc(O)c(CN3CCNCC3)c1)[C@@]2(C)Br (stereo not given in full) | 12.4 mg/kg | 24.6 mg/kg
C[C@@H]1CC[C@@H]2[C@]34OO[C@](C)(CC[C@@H]13)O[C@H]4OC(Nc1ccc(O)c(CN3CCN(C)CC3)c1)[C@@]2(C)Br (stereo not given in full) | 9.9 mg/kg | 17.4 mg/kg
C[C@@H]1CC[C@@H]2[C@]34OO[C@](C)(CC[C@@H]13)O[C@H]4OC(Nc1ccc(O)c(CN3CCN(c4cccc(C(F)(F)F)c4)CC3)c1)[C@@]2(C)Br (stereo not given in full) | 6.01 mg/kg | 9.28 mg/kg
